Structures can show the parent of a compound that is named as a salt. Where two headings read alike, the source gives them in different places.
Tests used:
[1] = test system: rat brain tyrosine hydroxylation; experiment: In-vivo determination of rat brain tyrosine hydroxylation (Dopa formation after NSD 1015, reserpine-pretreated rats); details: sc
Description: 2. In-vivo determination of rat brain tyrosine hydroxylation.
The compounds under evaluation were tested biochemically for central DA-receptor (pre- and/or postsynaptic) stimulating activity. The concept of this biochemical screening method is that a DA-receptor agonist will stimulate the receptor and through regulatory feedback systems effect a decline in tyrosine hydroxylase activity and thus a subsequent reduction in the synthesis rate for DA in the presynaptic neuron. Dopa formation, as determined after in-vivo inhibition of the aromatic L-amino acid decarboxylase with NSD 1015 (3-hydroxybenzyl-hydrazine hydrochloride), is taken as an indirect measure of DA synthesis rate.
Rats (150-300 g) pretreated with reserpine were given the compounds under evaluation. Gross behavioral observations (changes in motility, stereotypies etc.) were made in order to evaluate possible postsynaptic dopamine receptor activity. Subsequent administration of NSD 1015, decapitation, brain dissection (corpora striate and the limbic fore-brain), homogenization, centrifugation, ion-exchange chromatography and spectrofluorimetric measurements (all as described in detail by Wikstrom et al., in J. Med. Chem. 21, 864-867, 1978, and references cited therein), gave the actual Dopa levels. Several doses (n=4-6) were tested in order to obtain dose-response curves for each compound and brain area. The dose of a compound producing a half-maximal decrease in the Dopa level in the rat brain part was then estimated.

DA autoreceptors = experiment: Effect on spontaneous locomotor activity in the rat; type: in vivo; details: 0-15 min; haloperidol 0.02 mg/kg i.p. 25 min before + saline, n=5
Text: 4. Effect on spontaneous locomotor activity in the rat.
Untreated animals exposed to a new environment display an initial high motor activity which then gradually declines over a period of time. Administration of DA-receptor agonists (e.g. apomorphine) in doses where preferential autoreceptor stimulation is likely to occur, causes a depression of the spontaneous motility mentioned above, considered to be due to the DA autoreceptor-mediated impairment of central DA transmission.
Rats (150-300 g) were injected subcutaneously with several doses of compounds 4 and after 5 minutes they were individually placed in motility boxes ("M/P 40 Fc Electronic Motility Meter". Motron Products, Stockholm) and the motor activity (0-30 min.) was quantified. […] Moreover, there seems to be a correlation between the decrease in spontaneous locomotion and the degree of antagonism of the GBL-induced increase in DA synthesis (cf. 3 above) in the limbic areas of rat brain exerted by compound 4, the per cent decrease of motor activity being roughly 0.6 times the per cent reversal of GBL-induced increase in DA-synthesis rate.

[2] = test system: postsynaptic DA receptors; experiment: Antagonism of the reserpine-induced "neuroleptic syndrome" in the rat; type: in vivo; details: 20 mg/kg s.c.
Text: 1. Antagonism of the reserpine-induced "neuroleptic syndrome" in the rat
Depletion of the monoamine stores with reserpine brings about a "neuroleptic syndrome" characterized by hypomotility, catalepsy, muscle rigidity, hunch-backed posture as well as a number of other central and peripheral signs of monoamine depletion. This syndrome can be reversed by the administration of drugs that stimulate postsynaptic DA receptors directly or indirectly, e.g. apomorphine, L-Dopa.
Rats (150-300 g) pretreated with reserpine (10 mg/kg i.p., 6 h before) were given compound 4 subcutaneously at different doses.

[3] = test system: presynaptic dopaminergic receptor (autoreceptor); experiment: Spontaneous exploratory motor activity of rats, enantiomers of 3-PPP; type: in vivo, rat
Description: 1. Evidence for presynaptic dopaminergic receptor (autoreceptor) agonist activity of both enantiomers of 3-PPP. Both enantiomers of 3-PPP cause a dose-dependent decrease in spontaneous exploratory motor activity of rats. […] However, the (+)-enantiomer causes a decrease only after doses between 0.25 and 4 mg/kg s.c.

dopa formation = experiment: Dopa formation and dopamine metabolite levels in rats not pretreated with GBL or reserpine; type: in vivo, rat
[4] = test system: postsynaptic dopaminergic receptors; experiment: Locomotor activity in reserpine-treated rats, enantiomers of 3-PPP; type: in vivo, rat
Text: 2. Evidence for postsynaptic dopaminergic receptor agonist activity of (+)-3-PPP.

[5] = test system: dopaminergic receptors (presynaptic and postsynaptic); experiment: Dopaminergic receptor profile of 3-PPP and its enantiomers (summary of tests); type: in vivo; details: summary of enantiomer tests
Text: The two enantiomers of 3-PPP have now been tested separately.

[6] = test system: central postsynaptic DA-receptor; experiment: Locomotor activity in reserpine-pretreated rats, comparison of compound 4 with two known dopaminergic agonists; type: in vivo, rat; details: for Motor activity: 0-60 min postinj.; for central postsynaptic DA-receptor stimulation / motor response: s.c.
Description: Rats (150-300 g) pretreated with reserpine (10 mg/ kg i.p., 6 h before) were given either phys. saline, compound 4 (100 μmol/kg), N-n-propyl-3-(3,4-dihydroxyphenyl)piperidine (100 μmol/kg) or apomorphine ([…]) subcutaneously and the locomotor activity (accumulated counts 0-60 min.) was quantified by means of Motron boxes (see under 4 above).

[7] = test system: postsynaptic dopaminergic receptor; experiment: Antagonism of apomorphine-induced locomotor stimulation; type: in vivo, rat; details: apomorphine 1 mg/kg s.c., means ± s.e.m., n=10
Description: 3. Evidence for postsynaptic dopminergic receptor antagonist activity of (-)-3-PPP.
The locomotor stimulating action of the dopamine receptor aqonist apomorphine is antagonized by (-)-3-PPP. […] Thus the postsynaptic receptor antagonist activity requires a larger dose than the presynaptic receptor agonist activity, which is evident after doses down to 0.25 mg/kg.
Further, (-)-3-PPP and racemic 3-PPP have been compared regarding antagonism of apomorphine-induced locomotor stimulation. Either form of 3-PPP was injected subcutaneously in a dose of 8 mg/kg 20 min and apomorphine in a dose of 1 mg/kg subcutaneously 5 min before placing the rats in the Motron for 30 min. Shown are the counts per 30 min., means± s.e.m. and number of experiments (n).

[8] = reserpine-pretreated rats, Dopa level, limbic, read-out: ED50 Limbic
[9] = reserpine-pretreated rats, Dopa level, striatum, read-out: ED50 Striatum
[10] = limbic, inactive, read-out: ED50 Limbic (class symbol)
[11] = striatum, inactive, read-out: ED50 Striatum (class symbol)

Row | SMILES | ED50 [1, 8] [µmol/kg] | ED50 [1, 9] [µmol/kg] | other results
1 | C=CCOc1cccc(C2CCCN(CCC)C2)c1 (centres unmarked) [Compound 16, N-n-Propyl-3-(3-allyloxyphenyl)piperidine hydrochloride] | < 45 | < 45 | –
2 | CCCCN1CCCC(c2cccc(O)c2)C1 (centres unmarked) [Compound 5, N-butyl-3-(3-hydroxphenyl)piperidine] | 1.7 | 0.7 | –
3 | CN(C)CCN1CCCC(c2cccc(O)c2)C1 (centres unmarked) [Compound 14] | ~20 | ~20 | –
4 | Oc1cccc(C2CCNC2)c1 (centres unmarked) [1 OH H HBr, reference compound] | – | – | ED50 [1, 10]: > 90 µmol/kg; ED50 [1, 11]: > 90 µmol/kg
5 | CCCCCN1CCCC(c2cccc(O)c2)C1 (centres unmarked) [Compound 6, N-pentyl-3-(3-hydroxyphenyl)piperidine hydrochloride] | 0.9 | 0.6 | –
6 | CCCN1CCCC(c2cccc(OC(=O)C(C)(C)C)c2)C1 (centres unmarked) [Compound 11] | 2.2 | 1.7 | –
7 | CCCN1CCCC(c2cccc(OC)c2)C1 (centres unmarked) [2 OCH3 n-C3 H7 HBr, N-Propyl-3-(3-methoxyphenyl)piperidine hydrobromide, reference compound] | – | – | ED50 [1, 10]: > 180 µmol/kg; ED50 [1, 11]: > 180 µmol/kg
8 | O=C(CCCN1CCC(O)(c2ccc(Cl)cc2)CC1)c1ccc(F)cc1 [Haloperidol, reference compound] | – | – | Motor activity (DA autoreceptors): 140 ± 22 acc. counts
9 | CCCCN1CCCC(c2cccc(OC(=O)c3ccccc3)c2)C1 (centres unmarked) [Compound 22] | < 2.7 | < 2.7 | –
10 | OCCN1CCCC(c2cccc(O)c2)C1 (centres unmarked) [Compound 13, 2-[3-(3-Hydroxyphenyl)-piperidino]ethanol hydrochloride] | ~20 | ~20 | –
11 | CC(C)N1CCCC(c2cccc(O)c2)C1 (centres unmarked) [Compound 7, N-isopropyl-3-(3-hydroxphenyl)piperidine] | 0.8 | 0.7 | antagonism of the reserpine-induced syndrome [2]: No antagonism of the reserpine-induced syndrome was seen
12 | CC(C)N1CCCC(c2cccc(OC(=O)c3ccccc3)c2)C1 (centres unmarked) [Compound 21] | 0.5 | 0.5 | –
13 | CCCN1CCCC(c2cccc(OC(C)=O)c2)C1 (centres unmarked) [Compound 10, N-n-Propyl-3-(3-acetoxyphenyl)piperidine hydrochloride] | 1.2 | 1.5 | –
14 | CN1CCCC(c2cccc(O)c2)C1 (centres unmarked) [Compound 1] | 2.1 | 1.5 | –
15 | CCCN1CCCC(c2cccc(OCc3ccccc3)c2)C1 (centres unmarked) [Compound 17, N-n-Propyl-3-(3-benzyloxyphenyl)piperidine hydrochloride] | < 45 | < 45 | –
16 | CCCN1CCCC(c2cccc(O)c2)C1 (single isomer, unassigned; (+)) [(+)-3-PPP, reference compound] | – | – | effect on locomotor activity ([3]; 8 mg/kg s.c.): no effect; increase of locomotor activity to % of control ([3]; 64 mg/kg s.c.): more than 200 % of control; decrease of locomotor activity to % of control ([3]; s.c., first 30 min): 30-40 % of control; dopa formation (dopa formation; 0.053 to 64 mg/kg, no pretreatment): decrease; levels of 3,4-dihydroxyphenyl acetic acid and homovanillic acid (dopa formation; matched to the changes in dopa formation): corresponding changes in the levels of the dopamine metabolites; effect of haloperidol on locomotor stimulation ([4]; haloperidol): blocked by haloperidol; stimulation of locomotor activity ([4]; reserpine-treated rats, (+)-form 0.25 to 64 mg/kg): marked stimulation of locomotor activity; activity on presynaptic and postsynaptic dopaminergic receptors [5]: dopaminergic receptor agonist by activating both the presynaptic and the postsynaptic receptors
17 | C=CCN1CCCC(c2cccc(O)c2)C1 (centres unmarked) [Compound 9] | 4.2 | 4 | –
18 | CCCN1CCCC(c2cccc(OC(=O)Nc3ccccc3)c2)C1 (centres unmarked) [Compound 18, N-n-Propyl-3[3-(phenylcarbamoyloxy)phenyl]-piperidine hydrochloride] | – | – | ED50 ([1]; read-out: ED50 Limbic): < 45 µmol/kg; ED50 ([1]; read-out: ED50 Striatum): < 45 µmol/kg
19 | CN1CCc2cccc3c2[C@H]1Cc1ccc(O)c(O)c1-3 [Apomorphine, reference compound] | 0.19 | 0.22 | Motor activity ([6]; 2 μmol/kg s.c.): 624 ± 51 acc. counts; central postsynaptic DA-receptor stimulation / motor response [6]: strong central postsynaptic DA-receptor stimulatory effects; counts per 30 min., apomorphine alone [7]: 513 ± 35 counts per 30 min.
20 | CCCN1CCCC(c2cccc(OC(=O)c3c(C)cccc3C)c2)C1 (centres unmarked) [Compound 19, N-n-Propyl-3-[2,6-dimethylbenzoyloxy)-phenyl]piperidine hydrochloride] | < 45 | < 45 | –
21 | CCCN1CCCC(c2cccc(OC(=O)c3ccccc3)c2)C1 (centres unmarked) [Compound 12, N-n-Propyl-3-(3-benzoyloxyphenyl)piperidine hydrochloride] | 1.8 | 2 | –
22 | CCCN1CCCC(c2cccc(OC(=O)c3ccc(OC(=O)C(C)(C)C)cc3)c2)C1 (centres unmarked) [Compound 20] | < 45 | < 45 | –
23 | CCCN1CCC(c2cccc(O)c2)C1 (centres unmarked) [Compound 3, N-propyl-30(3-hydroxyphenyl)pyrrolidine] | ~45 | ~45 | –
24 | CCCN1CCCC(c2ccc(O)c(O)c2)C1 (centres unmarked) [N-n-propyl-3-(3,4-dihydroxyphenyl)piperidine, reference compound] | 9.4 | 10 | Motor activity ([6]; 100 μmol/kg s.c.): 522 ± 83 acc. counts; central postsynaptic DA-receptor stimulation / motor response [6]: strong central postsynaptic DA-receptor stimulatory effects
